According to patent US20250277012A1 (Protagonist Therapeutics, Inc., priority 2021, published 2025):
Read-outs that look alike come from different tables or passages of the source. Positions of bridges follow the written chain, without caps; N, C: chain ends. Non-standard residues stand in square brackets, D forms with d. Residues, ends and D or L forms follow the SMILES beside them. Groups on a side chain read outwards from the residue. *: point of attachment. CH3O(CH2CH2O)11CH2CH2CO = COCCOCCOCCOCCOCCOCCOCCOCCOCCOCCOCCOCCC(=O)*; C18 diacid = O=C(O)CCCCCCCCCCCCCCCCC(=O)*; Dip = N[C@H](C(=O)O)C(c1ccccc1)c1ccccc1; 1Nal = N[C@@H](Cc1cccc2ccccc12)C(=O)O; dNMeY = CN[C@H](Cc1ccc(O)cc1)C(=O)O; Palmitoyl = CCCCCCCCCCCCCCCC(=O)*; NMeF = CN[C@@H](Cc1ccccc1)C(=O)O; dNMeF = CN[C@H](Cc1ccccc1)C(=O)O; β3hF = N[C@H](CC(=O)O)Cc1ccccc1; NMeK = CN[C@@H](CCCCN)C(=O)O; Tle = CC(C)(C)[C@H](N)C(=O)O; Isovaleryl = CC(C)CC(=O)*; Dab = NCC[C@H](N)C(=O)O; Dap = NC[C@H](N)C(=O)O; AEEA = NCCOCCOCC(=O)O; Ahx = NCCCCCC(=O)O

What was measured:
ferroportin [1] = target: T1, ferroportin (Homo sapiens, UniProt Q9NP59); test: FPN activity assay: ferroportin-GFP internalization/degradation in HEK293 cells; type: cell-based; design: expressed in transfected cells; settings: read-out: FPN IC50
T1 sequence (Q9NP59 1-571): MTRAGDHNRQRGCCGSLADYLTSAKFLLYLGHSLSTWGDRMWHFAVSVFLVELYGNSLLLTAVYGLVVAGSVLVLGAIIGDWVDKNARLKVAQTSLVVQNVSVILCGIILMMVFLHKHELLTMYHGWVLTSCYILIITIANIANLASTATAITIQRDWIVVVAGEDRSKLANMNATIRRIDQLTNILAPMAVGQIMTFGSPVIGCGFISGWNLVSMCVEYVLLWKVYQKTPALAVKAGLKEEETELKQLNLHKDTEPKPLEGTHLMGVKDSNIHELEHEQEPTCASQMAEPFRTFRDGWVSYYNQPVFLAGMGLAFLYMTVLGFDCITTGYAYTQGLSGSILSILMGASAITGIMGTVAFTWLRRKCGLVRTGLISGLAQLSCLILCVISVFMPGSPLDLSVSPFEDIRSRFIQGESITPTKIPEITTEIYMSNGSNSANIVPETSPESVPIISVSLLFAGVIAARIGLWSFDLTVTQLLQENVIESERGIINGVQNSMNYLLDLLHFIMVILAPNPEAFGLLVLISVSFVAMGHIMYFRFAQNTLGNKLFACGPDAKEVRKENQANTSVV
Procedure: Following internalization, the ferroporin protein is degraded.
A retro inverse peptide is a peptide with a reversed sequence in all D amino acids. An example is that Hy-Glu-Thr-His-NH2 becomes Hy-DHis-DThr-DGlu-NH2. The EC50 of these reference compounds for ferroportin internalization/degradation was determined according to the FPN activity assay described above. These peptides served as control standards.

ferroportin [2] = target: T1, ferroportin; test: T47D cell-based ferroportin internalization assay in presence of mouse serum albumin (MSA); design: a human breast carcinoma adherent cell line which endogenously expresses ferroportin; host or cells: T47D
Method in brief: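 Peptide potency for inducing ferroportin internalization was measured in T47D cells in the presence of serum albumin. Cells grown in RPMI with fetal bovine serum were seeded in 96-well plates at 80-100 k cells per well in 100 ul and rested overnight. Dilution series of test peptides were preincubated 30 min at room temperature, then added to the cells after the medium was aspirated.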

[3] = ferroportin-GFP HEK293 cells, at least 18 hours
[4] = T47D cells, 0.5% mouse serum albumin, 1 hr incubation
[5] = ferroportin-GFP internalization/degradation, HEK293 cells, Table 6E
[6] = T47D internalization assay in presence of mouse serum albumin (MSA), Table 6E

| SMILES | DC50 (ferroportin [1]; [3]) [nM] | IC50 (ferroportin [2]; [4]) [nM] | DC50 (ferroportin [1]; [5]) [nM] | IC50 (ferroportin [2]; [6]) [nM] |
| --- | --- | --- | --- | --- |
| CCCCCCCCCCCCCCCC(=O)NCCCCCC(=O)NCCCC[C@H](NC(=O)C[C@H](Cc1ccccc1)NC(=O)[C@@H]1CSSC[C@H](NC(=O)CC(C)C)C(=O)N[C@@H]([C@@H](C)O)C(=O)N[C@@H](Cc2c[nH]cn2)C(=O)N[C@@H](C(c2ccccc2)c2ccccc2)C(=O)N2CCC[C@H]2C(=O)N[C@@H](C)C(=O)N[C@@H]([C@@H](C)CC)C(=O)N1)C(=O)N[C@H](CCCCN)C(N)=O [Compd 43] (Isovaleryl-CTH[Dip]PAIC[β3hF]K([Ahx-Palmitoyl])[dK]-NH2; disulfide 1-8) | 1 to 10 | > 500 | – | – |
| CC(C)CC(=O)N[C@@H](CCC(=O)O)C(=O)N[C@H](C(=O)N[C@@H](Cc1c[nH]cn1)C(=O)N[C@H](C(=O)N1CCC[C@H]1C(=O)N[C@H]1CSSC[C@@H](C(=O)N(C)[C@@H](CCCCNC(=O)COCCOCCNC(=O)COCCOCCNC(=O)[C@H](CN)NC(=O)CCCCCCCCCCCCCCCCC(=O)O)C(=O)N[C@H](CC(=O)N[C@H](CCCCN)C(=O)N[C@@H](Cc2cccc3ccccc23)C(N)=O)Cc2ccccc2)NC1=O)C(c1ccccc1)c1ccccc1)[C@@H](C)O [compound 258] (Isovaleryl-ETH[Dip]PCC[NMeK]([AEEA-AEEA-Dap-C18 diacid])[β3hF][dK][1Nal]-NH2; disulfide 6-7) | – | – | 10 to 100 | 10 to 100 |
| COCCOCCOCCOCCOCCOCCOCCOCCOCCOCCOCCOCCC(=O)NCCCC[C@@H](NC(=O)C[C@H](Cc1ccccc1)NC(=O)[C@H](CCCCNC(=O)COCCOCCNC(=O)COCCOCCNC(=O)[C@H](CN)NC(=O)CCCCCCCCCCCCCCCCC(=O)O)N(C)C(=O)[C@@H]1CSSC[C@H](NC(=O)[C@@H]2CCCN2C(=O)[C@@H](NC(=O)[C@H](Cc2c[nH]cn2)NC(=O)[C@@H](NC(=O)[C@H](CCC(=O)O)NC(=O)CC(C)C)[C@@H](C)O)C(c2ccccc2)c2ccccc2)C(=O)N1)C(N)=O [compound 255] (Isovaleryl-ETH[Dip]PCC[NMeK]([AEEA-AEEA-Dap-C18 diacid])[β3hF][dK](CH3O(CH2CH2O)11CH2CH2CO)-NH2; disulfide 6-7) | – | – | 10 to 100 | 10 to 100 |
| CCCCCCCCCCCCCCCC(=O)NCCCCCC(=O)NCCCC[C@H](NC(=O)[C@@H]1CSSC[C@H](NC(=O)[C@@H]2CCCN2C(=O)[C@@H](NC(=O)[C@H](Cc2c[nH]cn2)NC(=O)[C@@H](NC(=O)[C@H](CCC(=O)OC)NC(=O)CC(C)C)[C@@H](C)O)C(c2ccccc2)c2ccccc2)C(=O)N1)C(=O)N[C@H](CC(=O)N[C@H](CCCCN)C(N)=O)Cc1ccccc1 [Compd 40] (Isovaleryl-E(OMe)TH[Dip]PCCK([Ahx-Palmitoyl])[β3hF][dK]-NH2; disulfide 6-7) | 10 to 100 | 1 to 10 | – | – |
| CC(C)CC(=O)N[C@@H](CCC(=O)O)C(=O)N[C@H](C(=O)N[C@@H](Cc1c[nH]cn1)C(=O)N[C@H](C(=O)N1CCC[C@H]1C(=O)N[C@H]1CSSC[C@@H](C(=O)N(C)[C@@H](CCCCNC(=O)COCCOCCNC(=O)COCCOCCNC(=O)[C@H](CN)NC(=O)CCCCCCCCCCCCCCCCC(=O)O)C(=O)N[C@H](CC(=O)N[C@H](CCCCN)C(=O)N(C)[C@H](Cc2ccc(O)cc2)C(N)=O)Cc2ccccc2)NC1=O)C(c1ccccc1)c1ccccc1)[C@@H](C)O [compound 257] (Isovaleryl-ETH[Dip]PCC[NMeK]([AEEA-AEEA-Dap-C18 diacid])[β3hF][dK][dNMeY]-NH2; disulfide 6-7) | – | – | 10 to 100 | 10 to 100 |
| CC(C)CC(=O)N[C@@H](CCC(=O)O)C(=O)N[C@H](C(=O)N[C@@H](Cc1c[nH]cn1)C(=O)N[C@H](C(=O)N1CCC[C@H]1C(=O)N[C@H]1CSSC[C@@H](C(=O)N(C)[C@@H](CCCCNC(=O)COCCOCCNC(=O)COCCOCCNC(=O)[C@H](CN)NC(=O)CCCCCCCCCCCCCCCCC(=O)O)C(=O)N[C@H](CC(=O)N[C@H](C(N)=O)C(C)(C)C)Cc2ccccc2)NC1=O)C(c1ccccc1)c1ccccc1)[C@@H](C)O [compound 290] (Isovaleryl-ETH[Dip]PCC[NMeK]([AEEA-AEEA-Dap-C18 diacid])[β3hF][Tle]-NH2; disulfide 6-7) | – | – | 10 to 100 | 10 to 100 |
| CC(C)CC(=O)N[C@@H](CCC(=O)O)C(=O)N[C@H](C(=O)N[C@@H](Cc1cnc[nH]1)C(=O)N[C@H](C(=O)N1CCC[C@H]1C(=O)N[C@H]1CSSC[C@@H](C(=O)N(C)[C@@H](CCCCNC(=O)COCCOCCNC(=O)COCCOCCNC(=O)[C@H](CN)NC(=O)CCCCCCCCCCCCCCCCC(=O)O)C(=O)N[C@H](CC(=O)N[C@H](CCCCN)C(=O)N(C)[C@H](Cc2ccccc2)C(N)=O)Cc2ccccc2)NC1=O)C(c1ccccc1)c1ccccc1)[C@@H](C)O [compound 250] (Isovaleryl-ETH[Dip]PCC[NMeK]([AEEA-AEEA-Dap-C18 diacid])[β3hF][dK][dNMeF]-NH2; disulfide 6-7) | – | – | 10 to 100 | 1 to 10 |
| CC(C)CC(=O)N[C@@H](CCC(=O)O)C(=O)N[C@H](C(=O)N[C@@H](Cc1c[nH]cn1)C(=O)N[C@H](C(=O)N1CCC[C@H]1C(=O)N[C@H]1CSSC[C@@H](C(=O)N(C)[C@@H](CCCCNC(=O)COCCOCCNC(=O)COCCOCCNC(=O)[C@H](CN)NC(=O)CCCCCCCCCCCCCCCCC(=O)O)C(=O)N[C@H](CC(=O)N[C@H](CCCCN)C(N)=O)Cc2ccccc2)NC1=O)C(c1ccccc1)c1ccccc1)[C@@H](C)O [compound 306] (Isovaleryl-ETH[Dip]PCC[NMeK]([AEEA-AEEA-Dap-C18 diacid])[β3hF][dK]-NH2; disulfide 6-7) | – | – | 10 to 100 | 10 to 100 |
| CC(C)CC(=O)N[C@@H](CCC(=O)O)C(=O)N[C@H](C(=O)N[C@@H](Cc1c[nH]cn1)C(=O)N[C@H](C(=O)N1CCC[C@H]1C(=O)N[C@H]1CSSC[C@@H](C(=O)N(C)[C@@H](CCCCNC(=O)COCCOCCNC(=O)COCCOCCNC(=O)[C@H](CN)NC(=O)CCCCCCCCCCCCCCCCC(=O)O)C(=O)N(C)[C@@H](Cc2ccccc2)C(=O)N[C@H](CCCCN)C(N)=O)NC1=O)C(c1ccccc1)c1ccccc1)[C@@H](C)O [compound 291] (Isovaleryl-ETH[Dip]PCC[NMeK]([AEEA-AEEA-Dap-C18 diacid])[NMeF][dK]-NH2; disulfide 6-7) | – | – | 10 to 100 | 10 to 100 |
| CC(C)CC(=O)N[C@@H](CCC(=O)O)C(=O)N[C@H](C(=O)N[C@@H](Cc1c[nH]cn1)C(=O)N[C@H](C(=O)N1CCC[C@H]1C(=O)N[C@H]1CSSC[C@@H](C(=O)N(C)[C@@H](CCCCNC(=O)COCCOCCNC(=O)COCCOCCNC(=O)[C@H](CN)NC(=O)CCCCCCCCCCCCCCCCC(=O)O)C(=O)N[C@H](CC(=O)N[C@@H](CCN)C(N)=O)Cc2ccccc2)NC1=O)C(c1ccccc1)c1ccccc1)[C@@H](C)O [compound 264] (Isovaleryl-ETH[Dip]PCC[NMeK]([AEEA-AEEA-Dap-C18 diacid])[β3hF][Dab]-NH2; disulfide 6-7) | – | – | 10 to 100 | 10 to 100 |
| CCCCCCCCCCCCCCCC(=O)NCCCCCC(=O)NCCCC[C@@H](C(=O)N[C@H](CC(=O)N[C@H](CCCCN)C(N)=O)Cc1ccccc1)N(C)C(=O)[C@@H]1CSSC[C@H](NC(=O)[C@@H]2CCCN2C(=O)[C@@H](NC(=O)[C@H](Cc2cnc[nH]2)NC(=O)[C@@H](NC(=O)[C@H](CCC(=O)OC)NC(=O)CC(C)C)[C@@H](C)O)C(c2ccccc2)c2ccccc2)C(=O)N1 [compound 307] (Isovaleryl-E(OMe)TH[Dip]PCC[NMeK]([Ahx-Palmitoyl])[β3hF][dK]-NH2; disulfide 6-7) | – | – | 10 to 100 | 1 to 10 |
